Source: patent US7947732B2, “Therapeutic substituted chlorocyclopentanols” (Allergan, Inc., priority 2007, dated 2011)
Counter-ions that a name gives are not always drawn. Like-named read-outs stand apart in the source and are kept apart here.

Tests used:
hTP = target: T1, hTP (Homo sapiens, UniProt P21731); assay: Other receptors functional EC50: hTP; format: cell-based
T1 sequence (P21731 1-343): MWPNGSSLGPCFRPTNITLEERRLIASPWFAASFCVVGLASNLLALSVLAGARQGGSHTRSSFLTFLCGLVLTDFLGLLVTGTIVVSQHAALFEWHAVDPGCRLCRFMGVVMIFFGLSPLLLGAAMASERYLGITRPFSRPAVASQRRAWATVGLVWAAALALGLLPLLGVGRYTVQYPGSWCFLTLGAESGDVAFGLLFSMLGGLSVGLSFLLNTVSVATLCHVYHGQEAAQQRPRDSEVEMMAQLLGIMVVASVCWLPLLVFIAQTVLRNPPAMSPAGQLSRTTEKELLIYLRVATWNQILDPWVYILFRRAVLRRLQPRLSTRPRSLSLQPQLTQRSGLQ
From the text: (§1) U.S. patent application Ser. No. 11/553,143, filed on Oct. 26, 2006, now issued as U.S. Pat. No. 7,427,685 incorporated by reference herein, describes the methods used to obtain the in vitro data in the tables below.

hDP = target: T2, hDP (Homo sapiens, UniProt Q13258); assay: Other receptors functional EC50: hDP; format: cell-based
T2 sequence (Q13258 1-359): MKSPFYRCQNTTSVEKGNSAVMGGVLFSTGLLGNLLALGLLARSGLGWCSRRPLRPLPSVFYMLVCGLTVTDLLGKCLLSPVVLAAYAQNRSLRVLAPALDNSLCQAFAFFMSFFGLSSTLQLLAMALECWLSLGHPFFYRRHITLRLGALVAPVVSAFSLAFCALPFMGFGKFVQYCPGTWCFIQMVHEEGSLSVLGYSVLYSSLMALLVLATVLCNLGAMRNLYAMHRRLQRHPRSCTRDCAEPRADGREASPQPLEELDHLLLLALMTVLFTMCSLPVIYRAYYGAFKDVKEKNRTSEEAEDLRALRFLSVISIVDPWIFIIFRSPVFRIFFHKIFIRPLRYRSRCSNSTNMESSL
From the text: as §1

normotensive dogs [1] = assay: Ocular surface hyperemia in normotensive dogs; format: in vivo; parameters: scale not given here
From the text: (§2) U.S. Pat. No. 7,091,231 describes the methods used for these in vivo tests.

normotensive dogs [2] = assay: Intraocular pressure in normotensive dogs; format: in vivo; settings: once daily for 5 days
From the text: as §2

hEP3A = target: T3, hEP3A (Homo sapiens, UniProt P43115); assay: Other receptors functional EC50: hEP3A; format: cell-based
T3 sequence (P43115 1-390): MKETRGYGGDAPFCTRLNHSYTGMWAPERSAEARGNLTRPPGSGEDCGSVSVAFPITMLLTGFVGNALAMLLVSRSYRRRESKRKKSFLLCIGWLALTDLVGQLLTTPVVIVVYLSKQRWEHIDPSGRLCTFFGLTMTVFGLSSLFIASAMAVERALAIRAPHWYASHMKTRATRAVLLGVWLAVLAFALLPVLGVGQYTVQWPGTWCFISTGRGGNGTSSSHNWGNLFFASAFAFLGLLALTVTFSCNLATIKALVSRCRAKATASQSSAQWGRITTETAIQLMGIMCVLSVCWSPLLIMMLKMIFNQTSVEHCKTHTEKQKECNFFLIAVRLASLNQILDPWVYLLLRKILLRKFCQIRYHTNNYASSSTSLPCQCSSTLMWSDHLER
From the text: as §1

EP2 [3] = target: T4, EP2 (Homo sapiens, UniProt P43116); assay: EP2 flipr functional assay; format: cell-based
T4 sequence (P43116 whole entry): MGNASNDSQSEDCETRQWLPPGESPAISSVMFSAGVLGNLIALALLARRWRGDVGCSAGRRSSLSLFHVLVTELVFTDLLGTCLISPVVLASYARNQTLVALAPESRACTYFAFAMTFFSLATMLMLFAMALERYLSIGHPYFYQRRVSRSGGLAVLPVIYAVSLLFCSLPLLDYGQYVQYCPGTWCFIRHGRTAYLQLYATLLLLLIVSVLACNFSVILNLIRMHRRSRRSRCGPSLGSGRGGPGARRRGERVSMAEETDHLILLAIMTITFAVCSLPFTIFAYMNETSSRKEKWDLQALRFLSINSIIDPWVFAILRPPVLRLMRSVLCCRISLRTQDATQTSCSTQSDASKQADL
From the text: as §1

EP2 [4] = target: T4, EP2; assay: EP2 binding (KI)
From the text: as §1

EP4 [5] = target: T5, EP4 (Homo sapiens, UniProt P35408); assay: EP4 flipr functional assay; format: cell-based; settings: read-out: EP4 data filpr EC50
T5 sequence (P35408 whole entry): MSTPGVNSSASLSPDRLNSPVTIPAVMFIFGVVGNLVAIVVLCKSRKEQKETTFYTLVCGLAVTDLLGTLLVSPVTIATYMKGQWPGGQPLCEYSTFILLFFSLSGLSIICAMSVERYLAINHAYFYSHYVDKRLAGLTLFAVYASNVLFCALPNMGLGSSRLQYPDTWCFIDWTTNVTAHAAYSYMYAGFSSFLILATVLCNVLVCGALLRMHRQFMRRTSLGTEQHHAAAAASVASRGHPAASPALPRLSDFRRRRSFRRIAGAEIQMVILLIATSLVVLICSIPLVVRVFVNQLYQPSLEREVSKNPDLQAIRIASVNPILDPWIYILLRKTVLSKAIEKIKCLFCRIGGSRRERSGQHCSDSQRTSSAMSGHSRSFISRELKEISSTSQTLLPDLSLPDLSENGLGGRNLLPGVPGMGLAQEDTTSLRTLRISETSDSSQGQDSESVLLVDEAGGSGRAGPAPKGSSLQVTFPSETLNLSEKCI
From the text: as §1

EP4 [6] = target: T5, EP4; assay: EP4 binding (KI)
From the text: as §1

EP2 [7] = target: T4, EP2; assay: EP2 cAMP assay; format: cell-based
From the text: as §1

[8] = 0.001%, once daily for 5 days, at 50 h

Compound: O=C(O)c1ccc(CCC[C@@H]2[C@@H](CSc3cc(F)cc(F)c3)[C@H](O)C[C@H]2Cl)s1
- EC50 (hTP): 5310 nM
- EC50 (hDP): 9690 nM

Compound: CCN(CC)CCOC(=O)c1ccc(CCC[C@@H]2[C@@H](CCc3cc(Cl)cc(Cl)c3)[C@H](O)C[C@H]2Cl)s1 [2-(Diethylamino)ethyl 5-(3-((1R,2R,3R,5R)-5-chloro-2-(3,5-dichlorophenethyl)-3-hydroxycyclopentyl)propyl)thiophene-2-carboxylate hydrochloride]
- maximum ocular surface hyperemia (OSH) score (normotensive dogs [1]; 0.0005%, once daily for 5 days, at 98 h): 1.25
- maximum intraocular pressure (IOP) decrease from baseline (normotensive dogs [2]; 0.0005%, at 28 h): 5.3 mmHg
- inhibition in vivo at 0.0005 % (normotensive dogs [2]; Canis lupus familiaris, 0.0005%, at 28 h, read-out: maximum intraocular pressure (IOP) decrease from baseline): 33%

Compound: CCN(CC)CCOC(=O)c1ccc(CCC[C@@H]2[C@@H](CCc3cc(Cl)cc(Cl)c3)[C@H](O)C[C@H]2Cl)s1 [2-(Diethylamino)ethyl 5-(3-((1R,2R,3R,5R)-5-chloro-2-(3,5-dichlorophenethyl)-3-hydroxycyclopentyl)propyl)thiophene-2-carboxylate]
- maximum ocular surface hyperemia (OSH) score (normotensive dogs [1]; 0.001%, once daily for 5 days, at 28 h): 1.8
- maximum intraocular pressure (IOP) decrease from baseline (normotensive dogs [2]; 0.001%, at 78 h): 6.9 mmHg
- inhibition in vivo at 0.001 % (normotensive dogs [2]; Canis lupus familiaris, 0.001%, at 78 h, read-out: maximum intraocular pressure (IOP) decrease from baseline): 47%

Compound: O=C(O)c1ccc(CCC[C@@H]2[C@@H](CCc3cc(Cl)cc(Cl)c3)[C@H](O)C[C@H]2Cl)s1 [5-(3-((1R,2R,3R,5R)-5-chloro-2-(3,5-dichlorophenethyl)-3-hydroxycyclopentyl)propyl)thiophene-2-carboxylic acid]
- maximum ocular surface hyperemia (OSH) score (normotensive dogs [1]; 0.0001%, once daily for 5 days, at 74 h): 0.8
- maximum ocular surface hyperemia (OSH) score (normotensive dogs [1]; 0.0005%, once daily for 5 days, at 50 h): 1.75
- maximum ocular surface hyperemia (OSH) score (normotensive dogs [1]; [8]): 1.8
- maximum ocular surface hyperemia (OSH) score (normotensive dogs [1]; 0.01%, once daily for 5 days, at 26 h): 2.5

Compound: O=C(O)c1ccc(CCC[C@@H]2[C@@H](C[S+]([O-])c3cc(Cl)cc(Cl)c3)[C@H](O)C[C@H]2Cl)s1 (stereo partly drawn) [5-(3-((1R,2R,3R,5R)-5-chloro-2-((3,5-dichlorophenylsulfinyl)methyl)-3-hydroxycyclopentyl)propyl)thiophene-2-carboxylic acid]
- maximum ocular surface hyperemia (OSH) score (normotensive dogs [1]; 0.005%, once daily for 5 days, at 30 h): 1.4
- maximum intraocular pressure (IOP) decrease from baseline (normotensive dogs [2]; 0.005%, at 4 h): 3.1 mmHg
- inhibition in vivo at 0.005 % (normotensive dogs [2]; Canis lupus familiaris, 0.005%, at 4 h, read-out: maximum intraocular pressure (IOP) decrease from baseline): 21%

Compound: O=C(O)c1ccc(CCC[C@@H]2[C@@H](CSc3cc(Cl)cc(Cl)c3)[C@H](O)C[C@H]2Cl)s1 [5-(3-((1R,2R,3R,5R)-5-chloro-2-((3,5-dichlorophenylthio)methyl)-3-hydroxycyclopentyl)propyl)-thiophene-2-carboxylic acid]
- maximum ocular surface hyperemia (OSH) score (normotensive dogs [1]; 0.01%, once daily for 5 days, at 52 h): 1.7
- maximum intraocular pressure (IOP) decrease from baseline (normotensive dogs [2]; 0.01%, at 6 h): 6.3 mmHg
- inhibition in vivo at 0.01 % (normotensive dogs [2]; Canis lupus familiaris, 0.01%, at 6 h, read-out: maximum intraocular pressure (IOP) decrease from baseline): 35%

Compound: O=C(O)c1ccc(CCC[C@@H]2[C@@H](CNc3cc(Cl)cc(Cl)c3)[C@H](O)C[C@H]2Cl)s1 [5-(3-((1R,2S,3R,5R)-5-chloro-2-((3,5-dichlorophenylamino)methyl)-3-hydroxycyclopentyl)propyl)thiophene-2-carboxylic acid]
- maximum ocular surface hyperemia (OSH) score (normotensive dogs [1]; 0.001%, once daily for 5 days, at 76 h): 1.5
- maximum intraocular pressure (IOP) decrease from baseline (normotensive dogs [2]; 0.001%, at 6 h): 2.6 mmHg
- inhibition in vivo at 0.001 % (normotensive dogs [2]; Canis lupus familiaris, 0.001%, at 6 h, read-out: maximum intraocular pressure (IOP) decrease from baseline): 18%

Compound: O=C(O)CCCCCC[C@@H]1[C@@H](CCc2cc(Cl)cc(Cl)c2)[C@H](O)C[C@H]1Cl [7-{(1R,2R,3R,5R)-5-Chloro-2-[2-(3,5-dichloro-phenyl)-ethyl]-3-hydroxy-cyclopentyl}-heptanoic acid]
- maximum ocular surface hyperemia (OSH) score (normotensive dogs [1]; 0.01%, once daily for 5 days, at 74 h): 0.8

Compound: O=C(O)c1ccc(CCC[C@@H]2[C@@H](CCc3cc(Cl)nc(Cl)c3)[C@H](O)C[C@H]2Cl)s1 [11b, 5-(3-((1R,2R,3R,5R)-5-chloro-2-(2-(2,6-dichloropyridin-4-yl)ethyl)-3-hydroxycyclopentyl)propyl)-thiophene-2-carboxylic acid]
- maximum ocular surface hyperemia (OSH) score (normotensive dogs [1]; 0.001%, once daily for 4 days, at 74 h): 1.9

Compound: O=C(O)c1ccc(CCC[C@@H]2[C@@H](CCc3cc(Cl)cc(CO)c3)[C@H](O)C[C@H]2Cl)s1 [11c, 5-(3-((1R,2R,3R,5R)-5-chloro-2-(3-chloro-5-(hydroxymethyl)phenethyl)-3-hydroxycyclopentyl)propyl)thiophene-2-carboxylic acid]
- maximum ocular surface hyperemia (OSH) score (normotensive dogs [1]; [8]): 0.8

Compound: CC(C)OC(=O)c1ccc(CCC[C@@H]2[C@@H](CCc3cc(Cl)cc(CO)c3)[C@H](O)C[C@H]2Cl)s1 [Isopropyl 5-(3-((1R,2R,3R,5R)-5-chloro-2-(3-chloro-5-(hydroxymethyl)phenethyl)-3-hydroxycyclopentyl)propyl)thiophene-2-carboxylate]
- maximum ocular surface hyperemia (OSH) score (normotensive dogs [1]; 0.001%, once daily for 5 days, at 26 h): 0.9

Compound: O=C(O)c1ccc(CCC[C@@H]2[C@@H](CNc3cc(Cl)cc(Cl)c3)[C@H](O)C[C@H]2Cl)s1 [drawing 6]
- EC50 (hEP3A): 7140 nM
- EC50 (EP2 [3]): 20 nM
- Ki (EP2 [4]): 1.5 nM
- EC50 (EP4 [5]): 5580 nM
- Ki (EP4 [6]): 678 nM
- EC50 (EP2 [7]): 0.09 nM

Compound: O=C(O)c1ccc(CCC[C@@H]2[C@@H](C[S+]([O-])c3cc(Cl)cc(Cl)c3)[C@H](O)C[C@H]2Cl)s1 (some centres unmarked) [drawing 8]
- Ki (EP4 [6]): > 1000 nM
